26 compounds from patent US12030879B2, “Sulfonyl acetamides as NLRP3 inhibitors” (Inflazome Limited, priority 2018, dated 2024) can be followed below.

Broadly, the IC50 is the point on the concentration scale where inhibition reaches its midpoint.

T1 sequence (Q96P20 whole entry): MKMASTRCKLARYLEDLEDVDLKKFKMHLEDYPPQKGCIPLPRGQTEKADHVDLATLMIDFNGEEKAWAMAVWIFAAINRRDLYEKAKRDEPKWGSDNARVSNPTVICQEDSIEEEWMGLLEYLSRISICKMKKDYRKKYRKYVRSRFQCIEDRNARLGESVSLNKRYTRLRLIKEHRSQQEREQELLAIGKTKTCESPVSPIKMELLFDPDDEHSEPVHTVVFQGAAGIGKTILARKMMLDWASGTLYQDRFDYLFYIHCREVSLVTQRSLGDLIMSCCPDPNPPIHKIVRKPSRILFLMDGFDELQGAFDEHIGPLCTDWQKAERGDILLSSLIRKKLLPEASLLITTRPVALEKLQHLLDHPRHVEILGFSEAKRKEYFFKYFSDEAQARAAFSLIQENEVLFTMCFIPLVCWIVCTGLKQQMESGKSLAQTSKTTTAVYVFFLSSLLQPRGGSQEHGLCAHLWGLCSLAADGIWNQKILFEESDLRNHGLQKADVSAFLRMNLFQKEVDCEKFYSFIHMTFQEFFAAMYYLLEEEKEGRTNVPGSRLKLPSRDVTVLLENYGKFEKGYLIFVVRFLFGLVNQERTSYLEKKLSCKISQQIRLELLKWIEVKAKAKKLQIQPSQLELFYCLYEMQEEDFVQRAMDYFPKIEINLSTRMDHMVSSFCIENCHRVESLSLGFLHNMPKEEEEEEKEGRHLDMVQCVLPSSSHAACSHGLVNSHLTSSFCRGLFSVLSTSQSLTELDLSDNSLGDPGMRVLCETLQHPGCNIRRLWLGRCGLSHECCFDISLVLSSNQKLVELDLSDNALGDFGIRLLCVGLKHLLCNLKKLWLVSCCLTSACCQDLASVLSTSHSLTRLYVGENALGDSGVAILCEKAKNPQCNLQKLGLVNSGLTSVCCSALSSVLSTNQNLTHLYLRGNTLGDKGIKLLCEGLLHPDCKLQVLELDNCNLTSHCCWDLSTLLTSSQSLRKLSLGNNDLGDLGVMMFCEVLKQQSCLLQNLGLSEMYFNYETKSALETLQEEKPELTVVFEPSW

The experiment concerns the target T1, NLRP3 (Homo sapiens, UniProt Q96P20).
T1 construct: Seed THP-1 cells (25,000 cells/well) containing 1.0 μg/ml LPS in 40 μl of RPMI medium; host or cells: THP-1 cells
Description: THP-1 cells pyroptosis assay. The format is cell-based. The conditions noted are these: LPS 1 μg/ml, compound 3 hrs, nigericin 5 μM 1 hr, resazurin readout. The method, then:
THP-1 cells (ATCC #TIB-202) were grown in RPMI containing L-glutamine (Gibco #11835) supplemented with 1 mM sodium pyruvate (Sigma #S8636) and penicillin (100 units/ml)/streptomycin (0.1 mg/ml) (Sigma #P4333) in 10% Fetal Bovine Serum (FBS) (Sigma #F0804). The cells were routinely passaged and grown to confluency (10^6 cells/ml). On the day of the experiment, THP-1 cells were harvested and resuspended into RPMI medium (without FBS). The cells were then counted and viability (>90%) checked by Trypan blue (Sigma #T8154). Appropriate dilutions were made to give a concentration of 625,000 cells/ml. To this diluted cell solution was added LPS (Sigma #L4524) to give a 1 μg/ml Final Assay Concentration (FAC). 40 μl of the final preparation was aliquoted into each well of a 96-well plate. The plate thus prepared was used for compound screening.
The following method step-by-step assay was followed for compound screening. • 1. Seed THP-1 cells (25,000 cells/well) containing 1.0 μg/ml LPS in 40 μl of RPMI medium (without FBS) in 96-well, black walled, clear bottom cell culture plates coated with poly-D-lysine (VWR #734-0317) • 2. Add 5 μl compound (8 points half-log dilution, with 10 μM top dose) or vehicle (DMSO 0.1% FAC) to the appropriate wells • 3. Incubate for 3 hrs at 37° C., 5% CO2 • 4. Add 5 μl nigericin (Sigma #N7143) (FAC 5 μM) to all wells • 5. Incubate for 1 hr at 37° C., 5% CO2 • 6. At the end of the incubation period, spin plates at 300×g for 3 mins and remove supernatant • 7. Then add 50 μl of resazurin (Sigma #R7017)(FAC 100 μM resazurin in RPMI medium without FBS) and incubate plates for a further 1-2 hrs at 37° C. and 5% CO2 • 8. Plates were read in an Envision reader at Ex 560 nm and Em 590 nm • 9. IC50 data is fitted to a non-linear regression equation (log inhibitor vs response-variable slope 4-parameters) 96-well Plate Map
`CC(C)c1cc(F)cc(-c2ccncc2)c1CC(=O)NS(=O)(=O)c1cc(C(=O)N(C)C)n(C)n1` [Example 60, 3-(N-(2-(4-Fluoro-2-isopropyl-6-(pyridin-4-yl)phenyl)acetyl)sulfamoyl)-N,N,1-trimethyl-1H-pyrazole-5-carboxamide] returned an IC50 of at most 5 µM.

Regarding `CC(C)c1cc(F)cc(-c2ccncc2)c1CC(=O)NS(=O)(=O)c1ccn(C(C)(C)CN(C)C)n1` [Example 61, N-((1-(1-(Dimethylamino)-2-methylpropan-2-yl)-1H-pyrazol-3-yl)sulfonyl)-2-(4-fluoro-2-isopropyl-6-(pyridin-4-yl)phenyl)acetamide], the IC50 was at most 5 µM.

On to `COc1cc(-c2cc(F)cc(C(C)C)c2CC(=O)NS(=O)(=O)c2cc(CN(C)C)n(C)n2)ccn1` [Example 62, N-((5-((Dimethylamino)methyl)-1-methyl-1H-pyrazol-3-yl)sulfonyl)-2-(4-fluoro-2-isopropyl-6-(2-methoxypyridin-4-yl)phenyl) acetamide], for which the IC50 is at most 5 µM.

For `COc1cc(-c2ccc3c(c2CC(=O)NS(=O)(=O)c2cc(C(=O)N(C)C)n(C)n2)CCC3)ccn1` [Example 64, 3-(N-(2-(5-(2-Methoxypyridin-4-yl)-2,3-dihydro-1H-inden-4-yl)acetyl)sulfamoyl)-N,N,1-trimethyl-1H-pyrazole-5-carboxamide], the IC50 was at most 10 µM.

`CN(C)C(=O)c1cc(S(=O)(=O)NC(=O)Cc2c(-c3ccnc(C#N)c3)ccc3c2CCC3)nn1C` [Example 65, 3-(N-(2-(5-(2-Cyanopyridin-4-yl)-2,3-dihydro-1H-inden-4-yl)acetyl)sulfamoyl)-N,N,1-trimethyl-1H-pyrazole-5-carboxamide] yielded an IC50 of at most 5 µM.

Regarding `CC(C)c1cc(F)cc(-c2ccncc2)c1CC(=O)NS(=O)(=O)c1cc(CN(C)C)n(C)n1` [Example 73, N-((5-((Dimethylamino)methyl)-1-methyl-H-pyrazol-3-yl)sulfonyl)-2-(4-fluoro-2-isopropyl-6-(pyridin-4-yl)phenyl)acetamide], the IC50 was at most 5 µM.

Consider `COc1cc(-c2cc(F)cc(C(C)C)c2CC(=O)NS(=O)(=O)C[C@]23CCC(CC2=O)C3(C)C)ccn1` [Example 75], for which the IC50 is at most 10 µM.

In the case of `COc1cc(-c2cc(F)cc(C(C)C)c2CC(=O)NS(=O)(=O)N(C)C2CCN(C)C2)ccn1` (centres unmarked) [Example 76, 2-(4-Fluoro-2-isopropyl-6-(2-methoxypyridin-4-yl)phenyl)-N—(N-methyl-N-(1-methylpyrrolidin-3-yl)sulfamoyl)acetamide], the IC50 is at most 5 µM.

Regarding `COc1cc(-c2cc(F)cc(C(C)C)c2CC(=O)NS(=O)(=O)C[C@@]23CC[C@@H](C[C@H]2O)C3(C)C)ccn1` [Example 77, 2-(4-Fluoro-2-isopropyl-6-(2-methoxypyridin-4-yl)phenyl)-N-((((1R,2R,4S)-2-hydroxy-7,7-dimethylbicyclo[2.2.1]heptan-1-yl)methyl)sulfonyl)acetamide], the IC50 was at most 5 µM.

`COc1cc(-c2cc(F)cc(C(C)C)c2CC(=O)NS(=O)(=O)CCCC(C)(C)O)ccn1` [Example 78, 2-(4-Fluoro-2-isopropyl-6-(2-methoxypyridin-4-yl)phenyl)-N-((4-hydroxy-4-methylpentyl)sulfonyl)acetamide] had an IC50 of at most 10 µM.

Consider `COc1cc(-c2cc(F)cc(C(C)C)c2CC(=O)NS(=O)(=O)c2ccc(F)c(C(C)(C)O)c2)ccn1` [Example 79, 2-(4-Fluoro-2-isopropyl-6-(2-methoxypyridin-4-yl)phenyl)-N-((4-fluoro-3-(2-hydroxypropan-2-yl)phenyl)sulfonyl)acetamide], for which the IC50 is at most 1 µM.

In turn, `COc1cc(-c2cc(F)cc(C(C)C)c2CC(=O)NS(=O)(=O)c2ccc(C(C)(C)O)cc2)ccn1` [Example 80, 2-(4-Fluoro-2-isopropyl-6-(2-methoxypyridin-4-yl)phenyl)-N-((4-(2-hydroxypropan-2-yl)phenyl)sulfonyl)acetamide] came in with a 50% inhibitory concentration (IC50) of at most 5 µM.

For the compound `COc1cc(-c2cc(F)cc(C(C)C)c2CC(=O)NS(=O)(=O)c2cccc(C(C)(C)C#N)c2)ccn1` [Example 81, N-((3-(2-Cyanopropan-2-yl)phenyl)sulfonyl)-2-(4-fluoro-2-isopropyl-6-(2-methoxypyridin-4-yl)phenyl)acetamide], the IC50 was at most 5 µM.

With `Cc1cc(C(C)(C)O)ccc1S(=O)(=O)NC(=O)Cc1c(-c2cccnc2)cc(F)cc1C(C)C` [Example 82, 2-(4-Fluoro-2-isopropyl-6-(pyridin-3-yl)phenyl)-N-((4-(2-hydroxypropan-2-yl)-2-methylphenyl)sulfonyl)acetamide], the IC50 was at most 5 µM.

Turning to `COc1cc(-c2cc(F)cc(C(C)C)c2CC(=O)NS(=O)(=O)c2ccc(C(C)(C)N)c(F)c2)ccn1` [Example 83, N-((4-(2-Aminopropan-2-yl)-3-fluorophenyl)sulfonyl)-2-(4-fluoro-2-isopropyl-6-(2-methoxypyridin-4-yl)phenyl)acetamide], the IC50 is at most 5 µM.

In turn, `COc1cc(-c2cc(F)cc(C(C)C)c2CC(=O)NS(=O)(=O)c2ccc(C(C)(C)O)c(F)c2)ccn1` [Example 84, 2-(4-Fluoro-2-isopropyl-6-(2-methoxypyridin-4-yl)phenyl)-N-((3-fluoro-4-(2-hydroxypropan-2-yl)phenyl)sulfonyl)acetamide] returned an IC50 of at most 1 µM.

Compound `COc1cc(-c2cc(F)cc(C(C)(C)F)c2CC(=O)NS(=O)(=O)c2ccc(C(C)(C)O)cc2C)ccn1` [Example 86, 2-(4-Fluoro-2-(2-fluoropropan-2-yl)-6-(2-methoxypyridin-4-yl)phenyl)-N-((4-(2-hydroxypropan-2-yl)-2-methylphenyl)sulfonyl)acetamide] yielded an IC50 of at most 5 µM.

`COc1cc(-c2cc(F)cc(C(C)(C)F)c2CC(=O)NS(=O)(=O)c2cc(C(C)(C)O)cs2)ccn1` [Example 87, 2-(4-Fluoro-2-(2-fluoropropan-2-yl)-6-(2-methoxypyridin-4-yl)phenyl)-N-((4-(2-hydroxypropan-2-yl)thiophen-2-yl)sulfonyl)acetamide]: the IC50 was at most 0.5 µM.

Consider `COc1cc(-c2cc(F)cc(C(C)C)c2CC(=O)NS(=O)(=O)c2ccc(C(C)(C)NC(C)=O)c(F)c2)ccn1` [Example 88, N-((4-(2-Acetamidopropan-2-yl)-3-fluorophenyl)sulfonyl)-2-(4-fluoro-2-isopropyl-6-(2-methoxypyridin-4-yl)phenyl)acetamide], for which the IC50 was at most 5 µM.

In turn, `COc1cc(-c2cc(F)cc(C(C)C)c2CC(=O)NS(=O)(=O)c2cccc(C(C)(C)O)c2)ccn1` [Example 89, 2-(4-Fluoro-2-isopropyl-6-(2-methoxypyridin-4-yl)phenyl)-N-((3-(2-hydroxypropan-2-yl)phenyl)sulfonyl)acetamide] displayed an IC50 of at most 1 µM.

Regarding `COc1cc(-c2cc(F)cc(C(C)C)c2CC(=O)NS(=O)(=O)c2ccc(C(C)(C)NC(=O)OC(C)(C)C)c(F)c2)ccn1` [Example 90, tert-Butyl (2-(2-fluoro-4-(N-(2-(4-fluoro-2-isopropyl-6-(2-methoxypyridin-4-yl)phenyl)acetyl)sulfamoyl)phenyl)propan-2-yl)carbamate], the IC50 is at most 0.5 µM.

As for `COc1cc(-c2cc(F)cc(C(C)C)c2CC(=O)NS(=O)(=O)c2ccc(C(C)(C)N(C)C)c(F)c2)ccn1` [Example 91, N-((4-(2-(Dimethylamino)propan-2-yl)-3-fluorophenyl)sulfonyl)-2-(4-fluoro-2-isopropyl-6-(2-methoxypyridin-4-yl)phenyl)acetamide], the IC50 was at most 5 µM.

The compound `COC(=O)c1cc(S(=O)(=O)NC(=O)Cc2c(-c3ccnc(OC)c3)cc(F)cc2C(C)C)ccc1F` [Example 92, Methyl 2-fluoro-5-(N-(2-(4-fluoro-2-isopropyl-6-(2-methoxypyridin-4-yl)phenyl)acetyl)sulfamoyl)benzoate] showed a concentration for half-maximal inhibition (IC50) of at most 5 µM.

For the compound `COc1cc(-c2cc(F)cc(C(C)C)c2CC(=O)NS(=O)(=O)c2ccc(Cl)cc2)ccn1` [Example 93, N-((4-Chlorophenyl)sulfonyl)-2-(4-fluoro-2-isopropyl-6-(2-methoxypyridin-4-yl)phenyl)acetamide], the IC50 was at most 1 µM.

For `COc1cc(-c2cc(F)cc(C(C)C)c2CC(=O)NS(=O)(=O)c2cnc3c(c2)c(C)nn3C)ccn1` [Example 94, N-((1,3-Dimethyl-1H-pyrazolo[3,4-b]pyridin-5-yl)sulfonyl)-2-(4-fluoro-2-isopropyl-6-(2-methoxypyridin-4-yl)phenyl)acetamide], the IC50 is at most 1 µM.

As for `COc1cc(-c2cc(F)cc(C(C)C)c2CC(=O)NS(=O)(=O)c2ccc(NC(C)=O)cc2)ccn1` [Example 95, N-((4-Acetamidophenyl)sulfonyl)-2-(4-fluoro-2-isopropyl-6-(2-methoxypyridin-4-yl)phenyl)acetamide], the 50% inhibitory concentration (IC50) is at most 10 µM.
